Results taken from patent US10364230B2, “Chromene-2 derivatives and use thereof in the treatment of fibrosis” (ALTAY THERAPEUTICS, INC., priority 2014, dated 2019).

Assays:
[1] = test system: TGFbeta-induced collagen synthesis in L929 cells; assay: TGFbeta-induced total collagen synthesis in L929 cells (sircol dye); type: cell-based; settings: 50 micromole CP1 for 1 hour, then 5 ng/ml Mouse TGFβ2, 72 hours, FIG. 1
Source text: (§1) The present invention is about novel compounds which may offer alternative treatment options against IPF, which believed to develop as a consequences of smoking, pollution, allergens, toxins and seen in people who are older than 50 years old. The compounds mentioned in this application have been generated from “6,7-dimethoxy 2H-chromen-one (1), which was identified from local medicinal plants during our screening studies. The anti-fibrotic activity of this compound (“6,7-dimethoxy 2H-chromen-one (I) against TGF beta-induced collagen synthesis using 1.929 cells has been identified. For this, in 96-well plates, 1.929 cells were cultured in DMEM supplemented with % 10 serum, 10 μg/ml ascorbic acid and 20 μM prolin until they reached to confluency. Confluent cells were treated with 50 micromole of our compound (named as CP1) dissolved in DMSO for 1 hour, then 5 ng/ml of Mouse TGFβ2 was added and cells were further incubated for 72 hours at incubator supplied with 5% CO2 and 80% humidity. At the end of this incubation one of the plate was used to determine cell viability by using MTT test, FIG. 2. The second 96-well plate was used to determine the level of total collagen. […] Absorbance of developed color was determined at 600 nm. […] In addition to total collagen, we also determined the level of “secreted collagen” by using ELISA. […]

[2] = test system: TGFbeta-induced secreted collagen synthesis in L929 cells; assay: TGFbeta-induced secreted collagen in L929 cells (anti-collagen type I ELISA); type: cell-based; settings: 50 micromole CP1, 5 ng/ml Mouse TGFβ2, 72 hours, culture supernatant, FIG. 3
Source text: as §1

COc1cc2ccc(=O)oc2cc1OC [CP1, 6,7-dimethoxy 2H-chromen-2-one]
TGFβ-induced collagen level in the presence of CP1, compared to control cells ([1]; TGFβ alone induced % 20): 10%
inhibition of TGFβ-induced collagen synthesis ([1]; total collagen, sircol, absorbance 600 nm): 50%
effect on TGFβ-induced secreted collagen level [2]: significantly inhibits
